According to the NIST ThermoML archive (doi:10.1021/je800418m):
“And” between values parts separate entries of the source, which are not always exact repeats. Identical values can stand only once.

Conditions: Crystal

N.O=C(O)C(F)(F)C(F)(F)C(F)(F)C(F)(F)C(F)(F)C(F)(F)C(F)(F)F [ammonium perfluorooctanoate]
Conditions | vapor or sublimation pressure
318.35 K | 3e-05 kPa
318.45 K | 2e-05 kPa
318.55 K | 3e-05 kPa and 5e-05 kPa
318.75 K | 1e-05 kPa
318.85 K | 7e-05 kPa
328.25 K | 7e-05 kPa
328.35 K | 6e-05 kPa
328.45 K | 6e-05 kPa
328.65 K | 9e-05 kPa and 0.00019 kPa
328.75 K | 4e-05 kPa and 9e-05 kPa and 6e-05 kPa
328.85 K | 0.00014 kPa and 6e-05 kPa and 0.00011 kPa
333.15 K | 9e-05 kPa
333.35 K | 0.00023 kPa
333.65 K | 0.00013 kPa [middle of 4 runs]
333.75 K | 0.00021 kPa
